Reference: PubChem BioAssay AID1963875 (Molecular Pharmacology Branch, DTP, NCI, 2024)

System: KRAS-mutant PDC complex spheroid viability
Experiment: Anticancer human tumor 186277-243-T-J2-PDC patient-derived colon adenocarcinoma cell line growth inhibition [KRAS2]
Conditions: for IC50: curve of first compound; for viability, T/C: stronger effect = lower value
Method in brief: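 Combination screen of spheroid viability in tumor-cell co-cultures with endothelial (HUVEC) and mesenchymal stem cell stroma. Each agent was tested in half-log dilutions, topping at clinical Cmax or at 10 microM without a known Cmax.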

[1] = second compound 0.1 µM, first compound 0.0316 µM
[2] = second compound 0.1 µM, first compound 0.1 µM
[3] = second compound 0.1 µM, first compound 0.316 µM
[4] = second compound 0.1 µM, first compound 1 µM
[5] = second compound 0.1 µM, first compound 3.16 µM
[6] = second compound 0.1 µM, first compound 10 µM
[7] = second compound 0.316 µM, first compound 0.0316 µM
[8] = second compound 0.316 µM, first compound 0.1 µM
[9] = second compound 0.316 µM, first compound 0.316 µM
[10] = second compound 0.316 µM, first compound 1 µM
[11] = second compound 0.316 µM, first compound 3.16 µM
[12] = second compound 0.316 µM, first compound 10 µM
[13] = second compound 1 µM, first compound 0.0316 µM
[14] = second compound 1 µM, first compound 0.1 µM
[15] = second compound 1 µM, first compound 0.316 µM
[16] = second compound 1 µM, first compound 1 µM
[17] = second compound 1 µM, first compound 3.16 µM
[18] = second compound 1 µM, first compound 10 µM
[19] = second compound 3.16 µM, first compound 0.0316 µM
[20] = second compound 3.16 µM, first compound 0.1 µM
[21] = second compound 3.16 µM, first compound 0.316 µM
[22] = second compound 3.16 µM, first compound 1 µM
[23] = second compound 3.16 µM, first compound 3.16 µM
[24] = second compound 3.16 µM, first compound 10 µM
[25] = second compound 10 µM, first compound 0.0316 µM
[26] = second compound 10 µM, first compound 0.1 µM
[27] = second compound 10 µM, first compound 0.316 µM
[28] = second compound 10 µM, first compound 1 µM
[29] = second compound 10 µM, first compound 3.16 µM
[30] = second compound 10 µM, first compound 10 µM
[31] = second compound 0.1 µM, first compound 0.00316 µM
[32] = second compound 0.1 µM, first compound 0.01 µM
[33] = second compound 0.316 µM, first compound 0.00316 µM
[34] = second compound 0.316 µM, first compound 0.01 µM
[35] = second compound 1 µM, first compound 0.00316 µM
[36] = second compound 1 µM, first compound 0.01 µM
[37] = second compound 3.16 µM, first compound 0.00316 µM
[38] = second compound 3.16 µM, first compound 0.01 µM
[39] = second compound 10 µM, first compound 0.00316 µM
[40] = second compound 10 µM, first compound 0.01 µM
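Wherever viability, T/C is given: viability read after seven days of compound exposure; 100% = DMSO vehicle-treated spheroids so lower means less viable.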

Row | Structure (SMILES) | IC50 (second compound 0.1 µM) | IC50 (second compound 0.316 µM) | IC50 (second compound 1 µM) | IC50 (second compound 3.16 µM) | IC50 (second compound 10 µM) | viability, T/C [1] | viability, T/C [2] | viability, T/C [3] | viability, T/C [4] | viability, T/C [7] | viability, T/C [8] | viability, T/C [9] | viability, T/C [10] | viability, T/C [13] | viability, T/C [14] | viability, T/C [15] | viability, T/C [19] | viability, T/C [20] | viability, T/C [25] | viability, T/C [26] | further results
1 | CC(C)NCC(C(=O)N1CCN(c2ncnc3c2C(C)CC3O)CC1)c1ccc(Cl)cc1 (stereo not given) + CNCc1ccccc1-c1csc(C(C)Nc2nc(C)nc3cc(OC)c(OC)cc23)c1 | 585 nM | 469 nM | 298 nM | < 31.6 nM | < 31.6 nM | 111% | 106% | 61.2% | 37.8% | 121% | 96.6% | 60.3% | 29.4% | 109% | 92.4% | 44.9% | 0.41% | 9.82% | 0.14% | 0.12% | viability, T/C [5]: 24.1%; viability, T/C [6]: 11.2%; viability, T/C [11]: 19.6%; viability, T/C [12]: 10.6%; viability, T/C [16]: 24.1%; viability, T/C [17]: 13.3%; viability, T/C [18]: 8.81%; viability, T/C [21]: 0.48%; viability, T/C [22]: 1.02%; viability, T/C [23]: 0.58%; viability, T/C [24]: 0.47%; viability, T/C [27]: 0.12%; viability, T/C [28]: 0.12%; viability, T/C [29]: 0.13%; viability, T/C [30]: 0.2%
2 | CCN1CCN(Cc2ccc(Nc3ncc(F)c(-c4cc(F)c5nc(C)n(C(C)C)c5c4)n3)nc2)CC1 + CNCc1ccccc1-c1csc(C(C)Nc2nc(C)nc3cc(OC)c(OC)cc23)c1 | > 1000 nM | 970 nM | 687 nM | 115 nM | < 3.16 nM | 93% | 117% | 171% | 72.5% | 106% | 144% | 144% | 48.3% | 96.2% | 132% | 119% | 118% | 56% | 0.19% | 0.15% | viability, T/C [31]: 97.5%; viability, T/C [32]: 86.7%; viability, T/C [33]: 87%; viability, T/C [34]: 91.3%; viability, T/C [35]: 90%; viability, T/C [36]: 85.5%; viability, T/C [16]: 23.6%; viability, T/C [37]: 80.7%; viability, T/C [38]: 85.4%; viability, T/C [21]: 14%; viability, T/C [22]: 0.14%; viability, T/C [39]: 0.18%; viability, T/C [40]: 0.37%; viability, T/C [27]: 0.41%; viability, T/C [28]: 0.15%
3 | CCNC(=O)CC1N=C(c2ccc(Cl)cc2)c2cc(OC)ccc2-n2c(C)nnc21 (stereo not given) + CNCc1ccccc1-c1csc(C(C)Nc2nc(C)nc3cc(OC)c(OC)cc23)c1 | > 10000 nM | > 10000 nM | 5550 nM | 379 nM | < 31.6 nM | 106% | 110% | 123% | 149% | 106% | 111% | 138% | 127% | 98.9% | 112% | 146% | 98.6% | 108% | 0.22% | 0.22% | viability, T/C [5]: 111%; viability, T/C [6]: 70.6%; viability, T/C [11]: 84.9%; viability, T/C [12]: 58.1%; viability, T/C [16]: 106%; viability, T/C [17]: 62.3%; viability, T/C [18]: 37.6%; viability, T/C [21]: 59.2%; viability, T/C [22]: 1.92%; viability, T/C [23]: 0.58%; viability, T/C [24]: 0.76%; viability, T/C [27]: 0.17%; viability, T/C [28]: 0.12%; viability, T/C [29]: 0.11%; viability, T/C [30]: 0.34%
4 | Cn1ncnc1[C@H]1c2n[nH]c(=O)c3cc(F)cc(c23)N[C@@H]1c1ccc(F)cc1 + CNCc1ccccc1-c1csc(C(C)Nc2nc(C)nc3cc(OC)c(OC)cc23)c1 | > 100 nM | > 100 nM | > 100 nM | < 0.316 nM | < 0.316 nM | 83.8% | 68.9% | – | – | 76.4% | 68.7% | – | – | 70.4% | 59.5% | – | 14.5% | 10.9% | 0.13% | 0.21% | viability, T/C (second compound 0.1 µM, first compound 0.000316 µM): 113%; viability, T/C (second compound 0.1 µM, first compound 0.001 µM): 109%; viability, T/C [31]: 109%; viability, T/C [32]: 101%; viability, T/C (second compound 0.316 µM, first compound 0.000316 µM): 117%; viability, T/C (second compound 0.316 µM, first compound 0.001 µM): 106%; viability, T/C [33]: 115%; viability, T/C [34]: 89.3%; viability, T/C (second compound 1 µM, first compound 0.000316 µM): 112%; viability, T/C (second compound 1 µM, first compound 0.001 µM): 110%; viability, T/C [35]: 97.9%; viability, T/C [36]: 86%; viability, T/C (second compound 3.16 µM, first compound 0.000316 µM): 25.5%; viability, T/C (second compound 3.16 µM, first compound 0.001 µM): 0.4%; viability, T/C [37]: 28.8%; viability, T/C [38]: 12.7%; viability, T/C (second compound 10 µM, first compound 0.000316 µM): 0.14%; viability, T/C (second compound 10 µM, first compound 0.001 µM): 0.14%; viability, T/C [39]: 0.14%; viability, T/C [40]: 0.13%
